One assay relates to mouse sperm. As to the kind of experiment: Mouse sperm motility by CASA analysis (VCL) after 12 h capacitation. The format is cell-based. The settings on record: 0.2 μM clofilium, 12 h capacitation in M16-BSA medium at 37° C., vs control. The method, then:
3. The viability of mouse sperm was determined by the measurement of the sperm motility. The motility analysis was performed using Computer Assisted Semen Analysis (CASA analysis). The CASA analysis was always performed in the examples using a CEROS™, Hamilton Thorne Bioscience, USA. VCL was thus measured. As known to the skilled person, VCL (for Curvilinear Velocity) is the average velocity of the sperm head through its real path. For this analysis, samples were diluted at 0.1 10^6/mL. The diluted sample was incubated for 12 hours at 37° C. in a capacitation medium of M16-BSA medium, with or without 0.2 μM clofilium. For the CASA measurement, 10 μL of the sample were placed on a 2X-CEL Slides, […], Leja Products B.V.,Netherlands, placed on the heating stage (37° C.) of the CEROS ™. A total of 10 automatically selected fields were analyzed.

Another assay deals with bovine sperm. As to the kind of experiment: In vitro fertilization with bovine sperm frozen with clofilium, washed or not washed after thawing. The class given is cell-based. The settings on record: bovine sperm frozen with 0.2 μM clofilium, vs control. The method, then:
In order to be as close as possible of the possible field usage, sperm were frozen with clofilium prior to test their ability to improve fertilization. Two conditions were tested: in the first one, clofilium was present during the sperm incubation period, and in the second one, sperm was washed to remove clofilium in order to mimic the condition that may occur in the female reproductive tract. Straws containing clofilium were obtained as described below. Bovine ejaculate was split into two fractions, and diluted 1:1 in either Optixcell (Fraction 1) or Optixcell containing clofilium 0.2 μM (Fraction 2). After 10 minutes of 34° C. incubation, semen was then diluted to a final concentration of 57 million of spermatozoa/ml in Optixcell (Fraction 1) or Optixcell containing clofilium 0.2 μM (Fraction 2). Diluted semen was frozen as described above and stored in liquid nitrogen until in vitro fertilization. Two types of straws were used: control straws and straws containing clofilium. For straws containing clofilium, two conditions were tested: washed and not washed. The wash medium is a commonly used medium, sp-TALP, for bovine sperm handling and which composition is described above. For “not washed” conditions, sperm were incubated with sp-TALP containing 0.2 μM clofilium. […]

As for `CCCCCCC[N+](CC)(CC)CCCCc1ccc(Cl)cc1` [clofilium], the “motility of sperm (in terms of VCL)” value in the assay with mouse sperm was “higher velocity than the “control””. Moreover, the “percentage of 2-cell embryos vs matured oocytes at 24 h post fertilization” value in the assay with bovine sperm (not washed (clofilium present in sp-TALP), up to 48 h incubation) was “positive effect on embryo outcome lasted 48 hours”; with bovine sperm (washed clofilium, 24 h incubation in sp-TALP), “positive effect at 24 hours is still present, although lower”; in the assay with bovine sperm (washed clofilium, 48 h incubation in sp-TALP) it was “the effect is no longer present”.

These data come from patent US20230292743A1, “Method for increasing the lifespan and motility of animal sperm using an inhibitor of Slo3 potassium channel” (IMV TECHNOLOGIES, priority 2017, published 2023).
